Results reported in US9241976B2, “Use of HDL-related molecules to treat and prevent proinflammatory conditions” (THE REGENTS OF THE UNIVERSITY OF CALIFORNIA, priority 2011, dated 2016).

Columns and labels:
CT26 cells [1] = assay: Tumor-load study: CT26 flank tumors in BALB/c mice; format: in vivo, mouse
Protocol: (§1) 6-week-old BALB/c female mice were given a 100 μL subcutaneous injection of 1×10^6 CT26 cells prepared as a single cell suspension in PBS, and the mice were treated with bHDLor BHDLat 10 mg/kg administered subcutaneously (SQ) daily for 15 days. The mice were sacrificed and tumor weights were measured.
6-week-old BALB/c female mice were given a 100 μl subcutaneous injection of 1×10^6 CT26 cells prepared as a single cell suspension in PBS, treated with peptide at 10 mg/kg by SQ daily for 15 days.
The mice were killed and tumor weights were measured. The tumor volumes were measured using the formula V=½ (L×W^2).
as §1, with “Six-week-old” for “6-week-old”, “[…]” for “μL”, “sc-4F or L-4F at” for “bHDLor BHDLat”, “subcutaneously” for “subcutaneously (SQ)”

CD31 = CD31 immunohistochemistry of lung surface tumors; format: in vivo, mouse; conditions: 100 mg/kg/d in chow diet for 3 weeks, vs control mice
Protocol: Tumor tissues from the lung surface were fixed and embedded with paraffin, sectioned at […] thickness. Sections were deparaffinized with xylene, rehydrated with 100%, 90%, 70%, and 50% ethanol, treated with proteinase K at […] for 30 minutes, and treated with 3% H2O2 for 30 minutes at room temperature to inhibit endogenous peroxidase, blocked with 10% normal goat serum and 4% bovine serum albumin prepared in PBS for 3 hours, and then incubated with 1:50 rat antimouse monoclonal CD31 antibody overnight at 4° C. The sections were incubated with corresponding biotinylated secondary antibody for 1 hour, followed by incubation with Vectastain ABC Elite reagents.

CT26 cells [2] = assay: Cell-cycle analysis of CT26 cells by flow cytometry; format: cell-based, mouse; parameters: dose or concentration left out as unconfirmed; conditions: 48 hours
Protocol: CT26 cells were cultured in 6-well plates overnight and then serum starved for 48 hours. […] Cells were collected, washed with PBS, and fixed with 70% ice-cold methanol overnight at 4° C. The fixed cells were collected by centrifugation, washed with PBS, and resuspended in 0.3 mL of PBS containing […] RNaseA and […] propidium iodide, and subjected to flow cytometric cell-cycle analysis by FACScan from BD Biosciences.

CT26 cells [3] = assay: LPA-induced viability of CT26 cells; format: cell-based, mouse; conditions: L-4F 10 mg/mL with LPA 5, 10, 48 hours
Protocol: FIGS. 17A-17B. HDL mimetic, L-4F inhibits LPA induced viability of CT26 cells and reduces LPA levels in cell culture medium. FIG. 17A, CT26 cells were cultured as described in Example 5 and incubated with either L-4F at 10 mg/mL or LPA at a concentration 5, 10, […], or cells were treated with both L-4F and LPA for 48 hours. All experiments were conducted in triplicate and each assay was carried out in quadruplicates. Data are represented as the mean±SD of the percent of control cells. FIG. 17B, LPA levels were measured in the cell culture medium after 48 hours of treatment.
The peptides were dissolved in H2O.

ROS = assay: Cellular reactive oxygen species, dichlorofluorescein oxidation assay in OV2008 cells; format: cell-based, human; conditions: 10 μg/ml pretreatment 1 h
Protocol: As described previously (Zhou et al., 2007; Lee et al., 2009), OV2008 cells were plated onto a glass slip (Thermo Fisher Scientific) in a 24-well plate at 4×10^4 cells per well, cultured overnight in normal cultured condition, starved in serum-free media overnight, and treated with L-4F (10 μg/ml) for 1 h. Then, dichlorofluorescein diacetate (DCFHDA, 10 μM) and insulin (200 nM)/CoCl2 (100 μM) were added and incubated with the cells for an additional 0.5 h. The cells were washed twice with phosphate-buffered saline (PBS). The images were captured with a fluorescence microscope (Olympus IX70; Olympus, Tokyo, Japan).

APC^min/+ mice = APC^min/+ mice study, intestinal tumors; format: in vivo; conditions: C57BL/6J-APC^min/+ mice; 100 mg/kg/d in mouse chow for 8 weeks
Protocol: (§2) 6-week-old APC^Min/+ male mice on a C57BL/6J background were treated with bHDL 100 mg/kg/day administered in a chow diet. After 8 weeks treatment, mice were sacrificed. The entire intestine was immediately removed, fixed in formalin and 70% ethanol. The intestine was opened and examined under a dissecting microscope to count and measure the tumors.
as §2, with “Six-week-oldAPC^min/+” for “6-week-old APC^Min/+”, “L-4F or sc-4F at” for “bHDL”, “mg/kg/d” for “mg/kg/day”

ID8 cells = conditions: cited from earlier work
[4] = Example 3, 10 mg/kg subcutaneous daily for 15 days

## Ac-DWFKAFYDKVAEKFKEAF-NH2 [L-4F, Ac-D-W-F-K-A-F-Y-D-K-V-A-E-K-F-K-E-A-F-NH2]
CT26 cells [1]; [4]
  flank tumor volume: 313 mm^3
  flank tumor weight: 179 mg
CT26 cells [1]; Example 5, 10 mg/kg subcutaneously daily for 15 days
  flank tumor weights: 389 mg
CD31
  CD31 expression in tumors: significant decrease
CT26 cells [2]
  cell-cycle profile: induced an increase in G0/G1 phase and arrest in S phase
CT26 cells [3]
  LPA-induced viability: significantly reduced
ROS
  cellular ROS production induced by insulin and CoCl2: dramatically prevented
APC^min/+ mice
  numbers of tumors of diameter 1-3 mm: 36.8
  numbers of tumors of diameter >3 mm: 5
  total tumor numbers in the intestinal tract, percent of the control: 60%
ID8 cells; C57BL/6J mice, administered subcutaneously or orally, reference (17)
  ID-8 cell-mediated tumor burden: decreased
ID8 cells; immunocompetent mouse model of ovarian cancer, ID8 (Gao et al., 2011)
  tumor growth and angiogenesis: inhibited
